# How the values were obtained:
# [1] = tested on: HSmGluR1 receptor (human metabotropic glutamate receptor) in AV12/pRS121 cells; experiment: PI hydrolysis in AV12/pRS121 cells (PI assay); type: cell-based; details: 10 μM, one hour at 37° C.
# Description: (§1) PI hydrolysis in clonal cell lines of AV12/pRS121 cells was measured in response to glutamate agonists as a functional assay for metabotropic glutamate receptor activity according to Schoepp, 11 TiPS 508 (1990).
# (§2) Twenty-four-well tissue-culture vessels were seeded with approximately 250,000 cells per well in D-MEM (in the absence of glutamic acid) which contained […] and 10% dialyzed fetal calf serum. Four microcuries of ^3 H-myoinositol were then added to each well and the cultures were incubated for 48 hours at 37° C. The wells were then rinsed with serum-free medium which contained 10 mM LiCl and 10 mM myoinositol. Some wells were then exposed to medium with glutamate agonists for one hour at 37° C., and some wells were at the same time exposed to medium without glutamate agonists for one hour at 37° C.
# (§3) The reactions were terminated by removing the media and adding 0.5 ml acetone-methanol (1:1). The cells were then incubated at 4° C. for 20 minutes. The acetone-methanol solutions were recovered from the wells and were placed into centrifuge tubes. […]
# (§4) Labeled phosphoinositides were eluted from the cartridges with 4 ml of a solution which contained: 0.1 M ammonium formate; 0.1 M formic acid and 5 mM sodium tetraborate. […] Scintillation counting fluid (Ready Solv HP) was added to the vials and the radioactivity was determined in a Beckmann Scintillation Counter.
# control AV12 cells = experiment: PI hydrolysis in control AV12 cells (PI assay); type: cell-based; details: quisqualate 10 μM
# Description: as §1, §2, §3, §4
structure (smiles),measurement,setting,value
N[C@@H](Cn1oc(=O)[nH]c1=O)C(=O)O [quisqualate],increase in PI hydrolysis over the basal level,[1],200 to 300%
same,increase in PI hydrolysis over basal levels,control AV12 cells,No increase

# From patent US6303751A, “Human metabotropic glutamate receptor and related DNA compounds” (Eli Lilly and Company, priority 1995, dated 2001)
